Entries after “also recorded” stand apart in the source; their conditions may differ.
Tests used:
Format in all cases: in vivo
[1] = tested on: swine exposed to 2.5 ATA hyperbaric oxygen for 5.5 hr; experiment: Experiment 2: adverse reactions / seizure observation; settings: 2.5 ATA oxygen exposure
Text: (§1) Hyperbaric Exposures: Individual animals were then placed into a Plexiglas box (30 in.×42 in.×38 in., manufactured in-house) within a Multiple Large Animal Chamber (MLAC), which is a steel-hulled hyperbaric chamber (450-cubic ft. floodable volume and pressure tested to 1,230 feet of seawater [fsw] equivalent) (Bethlehem Steel Corp, Bethlehem Pa.). Pressure/depth was monitored by a CPG 2500 Digital Pressure Gauge (Mensor Corp., San Marcos, Tex.). Swine were dove in pairs with each treatment group represented. Swine box assignment was alternated with respect to treatment to avoid any effects associated with individual box environmental features. Animals were monitored via closed-circuit television to observe signs of distress related to middle ear barotrauma (e.g. head shaking, nystagmus) and seizure activity. Oxygen concentration was measured and recorded using a portable O2 analyzer (Teledyne Analytical Inst, City of Industry, Calif.). After positioning the animal inside the Plexiglas box, the MLAC was sealed and pressurized using air at the rate of I ATA/minute to a depth of 2.5 ATA. After 2.5 min at a bottom depth equivalent to 2.5 ATA, the breathing gas was switched to 100% O2 and maintained for 5.5 Hrs. After completing 5.5 Hrs on 100% O2, the inspired gas was switched back to air for 3 min. Then, the chamber was decompressed at 1 ATA/minute. […]

[2] = tested on: swine exposed to 1.5 ATA hyperbaric oxygen for 17.5 hr; experiment: Experiment 1: adverse effects observation
Protocol: Next, the swine were switched to 100% oxygen breathing gas and remained at 1.5 ATA for 17.5 hr. At the end of the 17.5 hour 1.5 ATA oxygen exposure, swine surfaced at a rate of 1 ATA/minutes (ATA/min), were transferred to a Panepinto sling, sedated with diazepam (1.5-2.0 mg/kg, I.V) and reassessed via impulse Oscillometry. The swine were again anesthetized with propofol and intubated. When fully sedated, the swine were ventilated, paralyzed with Atracurium Besylate, and post-dive measurements of pulmonary function were recorded. During all phases of study the swine were continuously monitored for signs of seizure or distress.
Once measurements were complete, animals were then euthanized by intravenous infusion of euthanasia solution (Euthasol 1-1.5 ml/10 lbs. body weight) and transported to the necropsy suite for post-mortem sample collection.

[3] = tested on: swine exposed to 1.5 ATA hyperbaric oxygen for 17.5 hr; experiment: Experiment 1 shallow exposure simulation: pulmonary compliance; settings: 1.5 ATA O2 17.5 hr; 18 mcg nebulized pre-dive; n=7; p=0.8364
Protocol: Experiment 1 is designed to evaluate the efficacy of tiotropium bromide administered pre-dive in reducing decrements in pulmonary function due to PO2T following a 17.5 hour, 1.5 ATA hyperbaric oxygen exposure. This dive profile was selected because it was of sufficient duration to elicit persistent pulmonary function decrement in humans.
The swine were anesthetized with propofol (20 cc, I.V. target, adjusted as needed to optimize sedation), intubated and ventilated. Anesthetized swine were shaved, then ECG and EEG electrodes were placed. Animals were then paralyzed with Atracurium Besylate (50 mg, IV) for accurate pulmonary function measurements of quasi-static and dynamic compliance.
Following baseline pulmonary function measurements, the swine were randomized to receive equivalent volumes of normal saline or tiotropium bromide (18 mcg) via nebulizer. The swine were then ventilated until muscle tone was regained. […]
Next, the swine were switched to 100% oxygen breathing gas and remained at 1.5 ATA for 17.5 hr. […] When fully sedated, the swine were ventilated, paralyzed with Atracurium Besylate, and post-dive measurements of pulmonary function were recorded. During all phases of study the swine were continuously monitored for signs of seizure or distress. […]

[4] = tested on: swine exposed to 2.5 ATA hyperbaric oxygen for 5.5 hr; experiment: Experiment 2 deep exposure simulation: Impulse Oscillometry (IOS); settings: 2.5 ATA O2 5.5 hr, post-dive normalized to baseline, n=6/arm
Protocol: (§2) Experiment 2 is designed to evaluate the efficacy of tiotropium bromide pre-dive with respect to reducing decrements in pulmonary function due to PO2T following a 5.5 hour, 2.5 ATA hyperbaric oxygen exposure. This dive profile was selected because it caused the most significant pulmonary function deficits in humans with minimal risk of seizure due to CNS oxygen toxicity.
as §1, with “Calif.).” for “Calif.). After positioning the animal inside the Plexiglas box, the MLAC was sealed and pressurized using air at the rate of I ATA/minute to a depth of 2.5 ATA. After 2.5 min at a bottom depth equivalent to 2.5 ATA, the breathing gas was switched to 100% O2 and maintained for 5.5 Hrs. After completing 5.5 Hrs on 100% O2, the inspired gas was switched back to air for 3 min. Then, the chamber was decompressed at 1 ATA/minute.”

[5] = tested on: swine exposed to 2.5 ATA hyperbaric oxygen for 5.5 hr; experiment: Experiment 2 deep exposure simulation: pulmonary capacity (pressure-volume loops); settings: 2.5 ATA O2 5.5 hr
Protocol: as §2
Pulmonary function testing: The swine had disposable prewired electrodes adhered to the dermis over the gluteal muscle and a train of four (TOF) stimulation was initiated to confirm proper placement and twitch using a DigiStim III Peripheral Nerve Stimulator (Neuro Technology Inc., Kerrville, Tex.). Atracurium besylate (50 mg, IV) (hospira, Lake Forest, Ill.) was injected into the ear vein catheter, and the swine was observed until cessation of muscle twitch with TOFs. The swine was then disconnected from the ventilator circuit, allowed to passively exhale, and connected to an O2 filled 3 L super syringe (Hamilton Company, Reno, Nev.) attached to a pressure gauge (OMEGA®, Norwalk, Conn.), and pneumotachometer (Harvard Apparatus, Holliston, Mass.). Oxygen was introduced in 100 ml increments every 3 seconds until a static pressure of 40 cm H2O was reached. The lungs were then deflated in 100 ml increments until a static pressure of −40 cm H2O. The swine was then reconnected to the ventilator and ventilated for 2 minutes before repeating the insufflation and exhalation maneuvers and measurements one more time. […] After the above measurements, swine received either nebulized Tiotropium (18 μg dissolved in saline) or an equal volume of 0.9% saline through the breathing circuit over the course of 15 minutes. The propofol infusion was then stopped, the animals were then monitored until a swallow reflex was observed then extubated. The swine were then transported to the hyperbaric chamber suite and allowed to recover until capable of standing.
Hyperbaric Exposures: Individual animals were then placed into a Plexiglas box (30 in.×42 in.×38 in., manufactured in-house) within a Multiple Large Animal Chamber (MLAC), which is a steel-hulled hyperbaric chamber (450-cubic ft. floodable volume and pressure tested to 1,230 feet of seawater [fsw] equivalent) (Bethlehem Steel Corp, Bethlehem Pa.). Pressure/depth was monitored by a CPG 2500 Digital Pressure Gauge (Mensor Corp., San Marcos, Tex.). Swine were dove in pairs with each treatment group represented. Swine box assignment was alternated with respect to treatment to avoid any effects associated with individual box environmental features. Animals were monitored via closed-circuit television to observe signs of distress related to middle ear barotrauma (e.g. head shaking, nystagmus) and seizure activity. Oxygen concentration was measured and recorded using a portable O2 analyzer (Teledyne Analytical Inst, City of Industry, Calif.). After positioning the animal inside the Plexiglas box, the MLAC was sealed and pressurized using air at the rate of I ATA/minute to a depth of 2.5 ATA. After 2.5 min at a bottom depth equivalent to 2.5 ATA, the breathing gas was switched to 100% O2 and maintained for 5.5 Hrs. After completing 5.5 Hrs on 100% O2, the inspired gas was switched back to air for 3 min. Then, the chamber was decompressed at 1 ATA/minute. Upon reaching surface the animal was transported to the surgical suite for post-dive ECG and pulmonary function measurements (identical to the pre-dive procedures). The animal was then euthanized via ear vein infusion of Euthasol (1.0-1.5 ml/10 lbs body weight) followed by a saline flush (5 cc).
Pulmonary function data analysis: Pressure and flow data from the pressure gauge and pneumotachometer respectively were collected by a Dell Laptop (Round Rock, Tex.) and an analog-digital converter card (PCI-6052E, National Instruments, Austin, Tex.) with 16 bit resolution and 200 Hz sampling rate running Labchart 8.0. […]

**Q.** How did the “adverse reactions (including seizure)” value [1] turn out when `C[N+]1(C)[C@@H]2C[C@@H](OC(=O)C(O)(c3cccs3)c3cccs3)C[C@H]1[C@@H]1O[C@@H]12` [Tiotropium, tiotropium bromide] was run?
**A.** The value was “no adverse reactions”.

**Q.** What about the “adverse effect on outcome at any of the assessed endpoints” value ([2]; 1.5 ATA O2 17.5 hr, 18 mcg nebulized pre-dive) of the same compound?
**A.** Its value is “no observable adverse effect”.

**Q.** And the “adverse reactions (including seizure)” value ([2]; 1.5 ATA oxygen exposure)?
**A.** The value was “no adverse reactions”.

**Q.** And the “pulmonary compliance, baseline vs post-dive” value [3]?
**A.** The value was “no significant changes”.

**Q.** What about the “IOS resistance in saline treated controls when compared to Tiotropium treated swine” value ([4]; all frequencies, p=0.0421) of the same compound?
**A.** Its value is “significant decrease in resistance”.

**Q.** And the “IOS reactance in saline treated controls when compared to Tiotropium treated swine” value ([4]; p=0.0587)?
**A.** The value was “decrease in reactance which approached significance; also recorded: decrease in reactance, which approached significance”.

**Q.** What about the “change in VC following hyperbaric exposure” value ([5]; 1st set of measurements) of the same compound?
**A.** The value was “no change”.

**Q.** What about the “decrease in IC following hyperbaric exposure” value ([5]; 1st set of measurements, n=7, p=0.2217, mean ± SEM) of the same compound?
**A.** The value was 57.14 ± 34.11 mL.

**Q.** And the “increase in ERV following hyperbaric exposure” value ([5]; 1st set of measurements, n=7, p=0.6315, mean ± SEM)?
**A.** The value was 57.14+62.65 ml.

**Q.** And the “increase in VC following hyperbaric exposure” value ([5]; 2nd set of measurements, n=9, mean ± SEM)?
**A.** Its value is 22.22+52.69 ml.

**Q.** What about the “increase in ERV following hyperbaric exposure” value ([5]; 2nd set of measurements, n=9, p=0.4806, mean ± SEM) of the same compound?
**A.** The value was 44.44 ± 39.49 mL.

**Q.** And the “decrease in IC following hyperbaric exposure” value ([5]; 2nd set of measurements, n=9, p=0.5300, mean ± SEM)?
**A.** The value was 33.33 ± 31.94 mL.

**Q.** And the “Inspiratory capacity, Saline vs Tiotropium groups” value ([5]; percent change from baseline, averaged, p=0.266)?
**A.** Its value is “no significant differences”.

**Q.** What about the “Vital Capacity, Saline vs Tiotropium groups” value ([5]; percent change from baseline, averaged, p=0.325) of the same compound?
**A.** The value was “no significant differences”.

**Q.** What about the “Expiratory Reserve Volume, Saline vs Tiotropium groups” value ([5]; percent change from baseline, averaged, p=0.900) of the same compound?
**A.** The value was “no significant differences”.

From patent US20190290623A1, “USE OF TIOTROPIUM BROMIDE TO PREVENT PULMONARY OXYGEN TOXICITY” (priority 2018, published 2019)
